The values below come from US20240247080A1, “GLP1/GIP/NPY2 RECEPTOR TRIPLE AGONISTS” (Boehringer Ingelheim International GmbH, priority 2022, published 2024).

SMILES strings stand for the structures. Read-outs that look alike come from different tables or passages of the source.

One series concerns the target T1, hGLP1R (Homo sapiens, UniProt P43220).
T1 construct: expressed in transfected cells; host or cells: HEK-293 cells carrying a CRE-luciferase reporter gene
Put plainly: hGLP1R CreLuc reporter gene assay in 0.5% and 100% plasma. The format is cell-based. To be noted: CreLuc reporter gene assay. Summed up: (§1)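 HEK cells (GLP-1R, NPY2R) or CHO cells (GIPR) carrying a CRE-luciferase reporter, incubated 4 h at 37 °C with peptides in HBSS/20 mM HEPES pH 7.4 plus 0.5% human plasma, or in 100% plasma. Luminescence read; EC50 from 8-point variable-slope sigmoid fits.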
(Reporter assays use an easily measured gene product as a stand-in for the process of interest.)

Another series deals with T2, hGIPR (Homo sapiens, UniProt P48546).
T2 construct: expressed in transfected cells; host or cells: CHO cells carrying a CRE-luciferase reporter gene
T2 sequence (P48546 22-466): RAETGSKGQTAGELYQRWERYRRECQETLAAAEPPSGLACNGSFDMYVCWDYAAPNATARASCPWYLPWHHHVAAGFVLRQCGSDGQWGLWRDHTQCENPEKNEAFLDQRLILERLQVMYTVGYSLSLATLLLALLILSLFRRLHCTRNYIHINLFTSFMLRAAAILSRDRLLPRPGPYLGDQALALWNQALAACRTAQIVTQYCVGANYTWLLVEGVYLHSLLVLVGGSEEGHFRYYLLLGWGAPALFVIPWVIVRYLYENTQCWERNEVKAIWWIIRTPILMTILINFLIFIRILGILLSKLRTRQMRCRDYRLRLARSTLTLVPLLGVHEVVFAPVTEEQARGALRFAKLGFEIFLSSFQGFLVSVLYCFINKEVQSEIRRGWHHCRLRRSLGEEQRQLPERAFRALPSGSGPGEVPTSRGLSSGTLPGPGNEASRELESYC
As to the kind of experiment: hGIPR CreLuc reporter gene assay in 0.5% and 100% plasma. It counts as cell-based. To be noted: CreLuc reporter gene assay. An outline of the steps: as §1

A further series has as its target T3, hNPY2R (Homo sapiens, UniProt P49146).
T3 construct: expressed in transfected cells; host or cells: HEK-293 cells carrying a CRE-luciferase reporter gene
T3 sequence (P49146 1-381): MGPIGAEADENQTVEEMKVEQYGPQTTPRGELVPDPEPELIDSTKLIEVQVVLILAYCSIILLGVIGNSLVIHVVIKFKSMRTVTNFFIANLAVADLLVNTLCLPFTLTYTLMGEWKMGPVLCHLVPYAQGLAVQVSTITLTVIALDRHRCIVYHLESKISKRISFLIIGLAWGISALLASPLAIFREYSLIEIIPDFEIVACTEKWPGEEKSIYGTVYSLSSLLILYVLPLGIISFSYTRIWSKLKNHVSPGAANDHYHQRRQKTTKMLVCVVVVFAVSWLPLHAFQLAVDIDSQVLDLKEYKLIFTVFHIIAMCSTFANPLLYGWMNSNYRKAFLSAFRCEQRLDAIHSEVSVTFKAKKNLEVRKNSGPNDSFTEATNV
As to the kind of experiment: hNPY2R CreLuc reporter gene assay in 0.5% and 100% plasma. The settings on record: CreLuc reporter gene assay, 0.5% human plasma; read-out: hNPY2R 0.5% hP. It counts as cell-based. Summed up:
as §1

Series [1] can be described thus: Mouse PK after intravenous application. The format is in vivo. The settings on record: plasma, mean residence time, intravenous 30-60 nmol/kg, male NMRI mice. As to the method:
Pharmacokinetic parameters of the peptides were determined after intravenous application to NMRI mice. Male NMRI mice were obtained from Janvier Laboratories (France) weighing 30 to 40 g. Mice were housed in standard cages with a 12:12 hour light:dark cycle and standard food and water access ad libitum. Each test peptide was dissolved in 50 mM phosphate buffer (pH 7.4)/3.5% mannitol. Intravenous application of 30-60 nmol/kg was performed via the tail vein. Serial blood samples from conscious mice were collected from the saphenous vein in EDTA-containing vials at different time points up to 56 hours post-dosing. Subsequently, plasma was prepared by centrifugation for 5 min at approximately 5000 rpm and stored at −20° C. until quantification of the peptide plasma levels by liquid chromatography mass spectrometry (LC-MS). Individual plasma concentration—time profiles were analysed by a non-compartmental approach and the resulting pharmacokinetic parameters were calculated.

T1 sequence (P43220 24-463): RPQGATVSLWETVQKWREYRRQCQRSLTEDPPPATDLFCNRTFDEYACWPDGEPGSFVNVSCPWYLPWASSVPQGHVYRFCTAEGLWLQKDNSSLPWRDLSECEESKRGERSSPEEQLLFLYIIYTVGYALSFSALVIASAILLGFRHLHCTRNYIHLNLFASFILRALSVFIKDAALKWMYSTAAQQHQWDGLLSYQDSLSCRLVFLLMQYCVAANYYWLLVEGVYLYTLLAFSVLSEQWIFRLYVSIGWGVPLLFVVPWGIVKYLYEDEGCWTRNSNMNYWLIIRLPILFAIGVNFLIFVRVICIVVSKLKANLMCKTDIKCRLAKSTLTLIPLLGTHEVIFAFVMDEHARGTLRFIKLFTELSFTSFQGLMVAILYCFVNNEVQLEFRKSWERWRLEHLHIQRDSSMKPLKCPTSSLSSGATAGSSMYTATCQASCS

A word on the MRT: it is a mean duration of stay, worked out from the concentration-time curve. As for `CC[C@H](C)[C@H](NC(=O)[C@H](CC(C)C)NC(=O)[C@H](Cc1c[nH]c2ccccc12)NC(=O)[C@H](CCC(=O)O)NC(=O)[C@@H](NC(=O)[C@H](Cc1ccccc1)NC(=O)[C@H](C)NC(=O)C(C)(C)NC(=O)[C@H](CCC(N)=O)NC(=O)[C@H](C)NC(=O)[C@H](CCC(N)=O)NC(=O)[C@H](CCCCN)NC(=O)[C@H](CCC(=O)O)NC(=O)[C@H](CC(C)C)NC(=O)C(C)(C)NC(=O)[C@@H](NC(=O)[C@H](CO)NC(=O)[C@H](Cc1ccc(O)cc1)NC(=O)[C@H](CC(=O)O)NC(=O)[C@H](CO)NC(=O)[C@@H](NC(=O)[C@H](Cc1ccccc1)NC(=O)[C@@H](NC(=O)CNC(=O)[C@H](CCC(=O)O)NC(=O)C(C)(C)NC(=O)[C@@H](N)Cc1ccc(O)cc1)[C@@H](C)O)[C@@H](C)O)[C@@H](C)CC)C(C)C)C(=O)N[C@@H](CCCCNC(=O)[C@@H](N)CCCCNC(=O)CC[C@H](NC(=O)CC[C@H](NC(=O)CC[C@H](NC(=O)CC[C@H](NC(=O)CC[C@H](NC(=O)CC[C@H](NC(=O)CCCCCCCCCCCCCCCCCCC(=O)O)C(=O)O)C(=O)O)C(=O)O)C(=O)O)C(=O)O)C(=O)O)C(=O)NCC(=O)NCC(=O)N1CCC[C@H]1C(=O)N[C@@H](CO)C(=O)N[C@@H](CO)C(=O)NCC(=O)N[C@@H](C)C(=O)N[C@@H](CO)C(=O)N[C@@H](CC(C)C)C(=O)N[C@@H](CCCNC(=N)N)C(=O)N[C@@H](Cc1c[nH]cn1)C(=O)N[C@@H](Cc1ccc(O)cc1)C(=O)N[C@@H](Cc1ccc(O)cc1)C(=O)N[C@@H](CC(N)=O)C(=O)N[C@@H](Cc1c[nH]c2ccccc12)C(=O)N[C@@H](CC(C)C)C(=O)N[C@H](C(=O)N[C@@H](CCCNC(=N)N)C(=O)N[C@@H](CCC(N)=O)C(=O)N(C)[C@@H](CCCNC(=N)N)C(=O)N[C@@H](Cc1ccc(O)cc1)C(N)=O)[C@@H](C)O` [Compound 83, Y-Aib-E-G-T-F-T-S-D-Y-S-I-Aib-L-E-K-Q-A-Q-Aib-A-F-V-E-W-L-I-K(1,3)-G-G-P-S-S-G-A-S-L-R-H-Y-Y-N-W-L-T-R-Q-NMeR-Y-NH2.C20DA-gGlu-gGlu-gGlu-gGlu-gGlu-gGlu-eLys(1,2)], the EC50 on hGLP1R (0.5% human plasma, read-out: hGLP1R 0.5% hP) was found to be 0.17 nM; at hGLP1R (100% human plasma, read-out: hGLP1R 100% hP), 2.87 nM; on hGIPR (0.5% human plasma, read-out: hGIPR 0.5% hP), 0.13 nM; at hGIPR (100% human plasma, read-out: hGIPR 100% hP), 1.06 nM; at hNPY2R, 28.8 nM. The molecule also gave a mean residence time MRT in series [1] of 10.3 h.
